Target: N1 (A/HongKong/156/97 (H5N1)) sialidase (Influenza A virus, UniProt Q9W7Y7)
Test: biochemical

N1 (A/HongKong/156/97 (H5N1)) sialidase, sequence (Q9W7Y7 whole entry, looked up): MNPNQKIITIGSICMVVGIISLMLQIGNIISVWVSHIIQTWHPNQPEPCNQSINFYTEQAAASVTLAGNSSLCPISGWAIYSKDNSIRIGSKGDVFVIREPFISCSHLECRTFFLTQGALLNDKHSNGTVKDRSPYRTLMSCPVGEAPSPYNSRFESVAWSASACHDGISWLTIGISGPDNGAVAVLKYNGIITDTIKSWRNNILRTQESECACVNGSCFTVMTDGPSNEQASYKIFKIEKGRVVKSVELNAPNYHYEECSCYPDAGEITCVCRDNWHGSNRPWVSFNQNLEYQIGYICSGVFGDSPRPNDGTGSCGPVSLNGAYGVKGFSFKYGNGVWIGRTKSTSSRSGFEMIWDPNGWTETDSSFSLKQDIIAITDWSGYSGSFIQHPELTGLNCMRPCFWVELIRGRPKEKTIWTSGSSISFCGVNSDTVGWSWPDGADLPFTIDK

CC(=O)N[C@H]1[C@H]([C@H](O)[C@H](O)CO)OC(C(=O)O)=C[C@@H]1N=C(N)N [Compound 1, zanamivir] was tested, and the Ki was 0.17 nM.

Source: article PMC3060605 (Nature Communications, 2010)
